Experimental data published in patent US20160108039A1, “TRIAZOLOPYRIDINES AS THROMBIN INHIBITORS FOR THE TREATMENT OF THROMBOEMBOLIC DISEASES” (BAYER PHARMA AKTIENGESELLSCHAFT, priority 2013, published 2016).

Tests used:
thrombin [1] = target: T1, thrombin (Homo sapiens, UniProt P00734); assay: Thrombin-inhibitory activity in plasma samples (ecarin-activated); format: biochemical; settings: citrate plasma, ecarin activation, fluorogenic thrombin substrate; read at about 70% of maximum signal (about 12 min); in some cases means
Summary of the method: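 Citrate plasma prothrombin activated by ecarin (20 mU per reaction) in Ca2+-containing Hepes buffer with compound; unstimulated controls lacked ecarin. Thrombin activity followed with fluorogenic substrate (50 μmol/l final), ex 360/em 465 nm, read every minute over 20 minutes.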

thrombin [2] = target: T1, thrombin; assay: Measurement of the thrombin inhibition in buffer; format: biochemical; settings: human thrombin 0.06 nmol/l in Tris buffer pH 7.4, 22° C., substrate Boc-Asp(OBzl)-Pro-Arg-AMC; in some cases means of individual determinations
Summary of the method: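 Compound pre-incubated 15 min at 22° C with 0.06 nmol/l human thrombin in 50 mmol/l Tris, 100 mmol/l NaCl, 0.1% BSA, pH 7.4, then 5 μmol/l Boc-Asp(OBzl)-Pro-Arg-AMC added for 30 min. AMC fluorescence read at 360/460 nm against DMSO controls; IC50 from concentration–activity curves.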

| IC50 (thrombin [1]) | IC50 (thrombin [2]) | Compound |
| --- | --- | --- |
| 35 nM | 6.1 nM | CC[C@@H]1COC(C)(CCO)CN1C(=O)c1cc(OC)c2nc(NCc3cccc(Cl)c3)nn2c1 (single isomer, unassigned) [Example 70] |
| 34 nM | 13 nM | COCC1COC(C)(CCO)CN1C(=O)c1cc(OC)c2nc(NCc3cccc(Cl)c3)nn2c1 (single isomer, unassigned) [Example 72, {2-[(3-Chlorobenzyl)amino]-8-methoxy[1,2,4]triazolo[1,5-a]pyridin-6-yl}[2-(2-hydroxyethyl)-5-(methoxymethyl)-2-methylmorpholin-4-yl]methanone] |
| 19 nM | 19 nM | [2H]C([2H])(C)O[C@@H]1CC(CO)N(C(=O)c2cc(OC)c3nc(NCc4cccc(Cl)c4)nn3c2)C1 (single isomer, unassigned) [Example 74] |
| 74 nM | 23 nM | COc1cc(C(=O)N2C[C@H](OCC(F)F)CC2CO)cn2nc(NCc3cccc(Cl)c3)nc12 (single isomer, unassigned) [Example 75] |
| 5.9 nM | 6.4 nM | COc1cc(C(=O)N2CC3CCN3C(=O)C2C)cn2nc(NC(CF)c3cccc(Cl)c3)nc12 (single isomer, unassigned) [Example 77, 4-[(2-{[1-(3-Chlorophenyl)-2-fluoroethyl]amino}-8-methoxy[1,2,4]triazolo[1,5-a]pyridin-6-yl)carbonyl]-3-methyl-1,4-diazabicyclo[4.2.0]octan-2-one] |
| 20 nM | 19 nM | COc1cc(C(=O)N2CC(C)OCC2C2CC(O)C2)cn2nc(NCc3cccc(Cl)c3)nc12 (stereo not shown) [Example 2, {2-[(3-Chlorobenzyl)amino]-8-methoxy[1,2,4]triazolo[1,5-a]pyridin-6-yl}[5-(3-hydroxycyclobutyl)-2-methylmorpholin-4-yl]methanone] |
| 24 nM | 20 nM | COc1cc(C(=O)N2CC(C)(C)OC[C@H]2CCO)cn2nc(NCc3cccc(Cl)c3)nc12 [Example 7, {2-[(3-Chlorobenzyl)amino]-8-methoxy[1,2,4]triazolo[1,5-a]pyridin-6-yl}[(5R)-5-(2-hydroxyethyl)-2,2-dimethylmorpholin-4-yl]methanone] |
| 34 nM | 33 nM | COc1cc(C(=O)N2CC(C)(C)OCC2CC(C)O)cn2nc(NCc3cccc(Cl)c3)nc12 (stereo not shown) [Example 45, {2-[(3-Chlorobenzyl)amino]-8-methoxy[1,2,4]triazolo[1,5-a]pyridin-6-yl}[5-(2-hydroxypropyl)-2,2-dimethylmorpholin-4-yl]methanone] |
| 122 nM | 18 nM | COc1cc(C(=O)N2CC(C)(CCO)OCC2CF)cn2nc(NCc3cccc(Cl)c3)nc12 (stereo not shown) [Example 50, {2-[(3-Chlorobenzyl)amino]-8-methoxy[1,2,4]triazolo[1,5-a]pyridin-6-yl}[5-(fluoromethyl)-2-(2-hydroxyethyl)-2-methylmorpholin-4-yl]methanone] |
| 39 nM | 36 nM | CCC1C(=O)N2CCC2CN1C(=O)c1cc(OC)c2nc(NCc3cccc(Cl)c3)nn2c1 (stereo not shown) [Example 58, 4-({2-[(3-Chlorobenzyl)amino]-8-methoxy[1,2,4]triazolo[1,5-a]pyridin-6-yl}carbonyl)-3-ethyl-1,4-diazabicyclo[4.2.0]octan-2-one] |
| 63 nM | 25 nM | COc1cc(C(=O)N2CC(C)CCC2CCO)cn2nc(NCc3cccc(Cl)c3)nc12 (stereo not shown) [Example 64, {2-[(3-Chlorobenzyl)amino]-8-methoxy[1,2,4]triazolo[1,5-a]pyridin-6-yl}[2-(2-hydroxyethyl)-5-methylpiperidin-1-yl]methanone] |
| 102 nM | 8.9 nM | COc1cc(C(=O)N2CC(C)CCC2C(N)=O)cn2nc(NCc3cccc(Cl)c3)nc12 (stereo not shown) [Example 65, 1-({2-[(3-Chlorobenzyl)amino]-8-methoxy[1,2,4]triazolo[1,5-a]pyridin-6-yl}carbonyl)-5-methylpiperidine-2-carboxamide] |
| 39 nM | 25 nM | CC[C@@H]1COC(C)(CCO)CN1C(=O)c1cc(OC)c2nc(NCc3cccc(Cl)c3)nn2c1 (stereo partly drawn) [Example 69, {2-[(3-Chlorobenzyl)amino]-8-methoxy[1,2,4]triazolo[1,5-a]pyridin-6-yl}[(5R)-5-ethyl-2-(2-hydroxyethyl)-2-methylmorpholin-4-yl]methanone] |
| 87 nM | 35 nM | COCC1COC(C)(CCO)CN1C(=O)c1cc(OC)c2nc(NCc3cccc(Cl)c3)nn2c1 (stereo not shown) [Example 71, {2-[(3-Chlorobenzyl)amino]-8-methoxy[1,2,4]triazolo[1,5-a]pyridin-6-yl}[2-(2-hydroxyethyl)-5-(methoxymethyl)-2-methylmorpholin-4-yl]methanone] |
